Results reported in PubChem BioAssay AID330 (DTP/NCI, 2004).
Several values for one entry are separate records, joined by “and”; a condition that tells them apart may be missing. Equal values may be shown once. Inconclusive results and toxic doses are left out. Rule for the calls: active = survival T/C of 150% or more; inactive = T/C below 125% in these data.

System: P388 leukemia ip, CD2F1 mice, survival T/C
Experiment: NCI In Vivo Anticancer Drug Screen. Data for tumor model P388 Leukemia (intraperitoneal) in CD2F1 (CDF1) mice
Conditions: endpoint: median survival time, higher = longer survival
Procedure: The antitumor activity of compounds was measured in mice bearing transplantable tumors. Survival or tumor size were measured and the results are expressed as the measurement made in the treated group (T) divided by the measurement made in the vehicle treated control group (C). The tumor model used in this assay is P388 Leukemia (intraperitoneal) in CD2F1 (CDF1) mice

[1] = dose: 50.0 mg/kg/injection, schedule: Q01DX009 (ip), vehicle: saline with Tween-80
[2] = dose: 100.0 mg/kg/injection, schedule: Q01DX009 (ip), vehicle: saline with Tween-80
[3] = dose: 200.0 mg/kg/injection, schedule: Q01DX009 (ip), vehicle: saline with Tween-80
[4] = dose: 50.0 mg/kg/injection, schedule: Q01DX009 (ip), vehicle: saline
[5] = dose: 100.0 mg/kg/injection, schedule: Q01DX009 (ip), vehicle: saline
[6] = dose: 12.5 mg/kg/injection, schedule: Q01DX009 (ip), vehicle: saline with Tween-80
[7] = dose: 25.0 mg/kg/injection, schedule: Q01DX009 (ip), vehicle: saline with Tween-80

Measured: T/C

O=C1COC(c2ccccc2O)=NN1CCCl
inactive: [1] 103 % of control | [2] 103 % of control | [3] 110 % of control

S=c1cc(-c2ccccc2)c(-c2ccccc2)c(-c2ccccc2)s1
inactive: dose: 100.0 mg/kg/injection, schedule: Q01DX001 (ip), vehicle: saline with Tween-80 91 % of control | dose: 200.0 mg/kg/injection, schedule: Q01DX001 (ip), vehicle: saline with Tween-80 94 % of control

CC(C)C(N)S(=O)(=O)O (stereo not given)
inactive: [1] 115 % of control | [2] 94 % of control | [3] 105 % of control

[Cl][Ru]([Cl])([Cl])([Cl])([Cl])[Cl]
inactive: dose: 6.25 mg/kg/injection, schedule: Q04DX003 (ip), vehicle: saline 117 % of control and 123 % of control | dose: 12.5 mg/kg/injection, schedule: Q04DX003 (ip), vehicle: saline 117 % of control and 123 % of control | dose: 25.0 mg/kg/injection, schedule: Q04DX003 (ip), vehicle: saline 117 % of control | dose: 50.0 mg/kg/injection, schedule: Q04DX003 (ip), vehicle: saline 123 % of control | dose: 100.0 mg/kg/injection, schedule: Q04DX003 (ip), vehicle: saline 111 % of control

CC(C)(CCC(=O)O)C(=O)O
inactive: dose: 50.0 mg/kg/injection, schedule: Q01DX009 (ip), vehicle: saline sonified 91 % of control | dose: 200.0 mg/kg/injection, schedule: Q01DX009 (ip), vehicle: saline sonified 87 % of control

CCN(CC)CCNc1cc2ccccc2c2sc3ccccc3c(=O)c12
inactive: dose: 25.0 mg/kg/injection, schedule: Q01DX005 (ip), vehicle: distilled water + Tween-80 102 % of control | dose: 50.0 mg/kg/injection, schedule: Q01DX005 (ip), vehicle: distilled water + Tween-80 103 % of control

N=c1c2ncn(C3OC(COP(=O)(O)O)C(O)C3O)c2ncn1O (stereo not given)
inactive: [4] 97 % of control | [5] 97 % of control | dose: 200.0 mg/kg/injection, schedule: Q01DX009 (ip), vehicle: saline 95 % of control | dose: 400.0 mg/kg/injection, schedule: Q01DX009 (ip), vehicle: saline 97 % of control

NC(=O)NN(Cc1cccc(Cl)c1)N=O
inactive: dose: 100.0 mg/kg/injection, schedule: Q04DX003 (ip), vehicle: Klucel (hydroxypropylcellulose) (HPC) 95 % of control | dose: 200.0 mg/kg/injection, schedule: Q04DX003 (ip), vehicle: Klucel (hydroxypropylcellulose) (HPC) 94 % of control | dose: 400.0 mg/kg/injection, schedule: Q04DX003 (ip), vehicle: Klucel (hydroxypropylcellulose) (HPC) 98 % of control

CC(=O)OC1=CC(=O)N(C(=O)c2ccccc2)C1
inactive: dose: 50.0 mg/kg/injection, schedule: Q01DX009 (ip), vehicle: Klucel (hydroxypropylcellulose) (HPC) 105 % of control | dose: 100.0 mg/kg/injection, schedule: Q01DX009 (ip), vehicle: Klucel (hydroxypropylcellulose) (HPC) 116 % of control | dose: 200.0 mg/kg/injection, schedule: Q01DX009 (ip), vehicle: Klucel (hydroxypropylcellulose) (HPC) 113 % of control

CC1(C)C2CCC(C2)C1C(=O)CCN1CCc2ccccc2C1 (stereo not given)
inactive: [6] 106 % of control | [7] 107 % of control | [1] 107 % of control

CC(=O)Nc1cc(F)c2c(c1F)Cc1cc(F)ccc1-2
inactive: [2] 100 % of control | dose: 100.0 mg/kg/injection, schedule: Q04DX003 (ip), vehicle: saline with Tween-80 100 % of control | [3] 90 % of control | dose: 200.0 mg/kg/injection, schedule: Q04DX003 (ip), vehicle: saline with Tween-80 100 % of control | dose: 400.0 mg/kg/injection, schedule: Q04DX003 (ip), vehicle: saline with Tween-80 104 % of control

N#Cc1cn(N(CCO)CCO)c(=O)[nH]c1=O
inactive: dose: 25.0 mg/kg/injection, schedule: Q01DX005 (ip), vehicle: saline 105 % of control | dose: 50.0 mg/kg/injection, schedule: Q01DX005 (ip), vehicle: saline 106 % of control | dose: 100.0 mg/kg/injection, schedule: Q01DX005 (ip), vehicle: saline 105 % of control | dose: 200.0 mg/kg/injection, schedule: Q01DX005 (ip), vehicle: saline 103 % of control

Nc1nc(N)c2nc3c(nc2n1)CCCCCCCCCC3
inactive: [6] 92 % of control | [7] 92 % of control | [1] 89 % of control | [2] 90 % of control

O=C(COc1ccc(Cl)cc1Cl)Oc1c(Cl)c(Cl)c(Cl)c(Cl)c1Cl
inactive: [7] 91 % of control | [1] 91 % of control | [2] 91 % of control

C/C(=N\O)c1ccc2c3c(ccc([N+](=O)[O-])c13)CC2
inactive: dose: 6.25 mg/kg/injection, schedule: Q01DX009 (ip), vehicle: suspension in saline 97 % of control | dose: 12.5 mg/kg/injection, schedule: Q01DX009 (ip), vehicle: suspension in saline 98 % of control | dose: 25.0 mg/kg/injection, schedule: Q01DX009 (ip), vehicle: suspension in saline 97 % of control | dose: 50.0 mg/kg/injection, schedule: Q01DX009 (ip), vehicle: suspension in saline 96 % of control

NN1CC(=O)N(c2ccccc2)CC1=O
inactive: [1] 100 % of control | [2] 94 % of control | [3] 94 % of control

O=C(NC(=O)c1cccc2ccccc12)NC(=S)c1cccc2ccccc12
inactive: dose: 100.0 mg/kg/injection, schedule: Q01DX001 (ip), vehicle: saline 103 % of control and 96 % of control | dose: 200.0 mg/kg/injection, schedule: Q01DX001 (ip), vehicle: saline 109 % of control and 95 % of control | dose: 400.0 mg/kg/injection, schedule: Q01DX001 (ip), vehicle: saline 101 % of control and 87 % of control

C=C1C[C@H](C2OC3OC(C)(C)OC3C2OCc2ccccc2)OC1=O (stereo not given in full)
inactive: dose: 50.0 mg/kg/injection, schedule: Q01DX005 (ip), vehicle: saline with Tween-80 97 % of control | dose: 100.0 mg/kg/injection, schedule: Q01DX005 (ip), vehicle: saline with Tween-80 98 % of control | dose: 200.0 mg/kg/injection, schedule: Q01DX005 (ip), vehicle: saline with Tween-80 100 % of control

CCOC(=O)/C=C(\C)NC1CC(OC2CC(O)(C(C)=O)Cc3c(O)c4c(c(O)c32)C(=O)c2c(OC)cccc2C4=O)OC(C)C1O (stereo not given)
inactive: dose: 6.25 mg/kg/injection, schedule: Q04DX003 (ip), vehicle: distilled water + Tween-80 110 % of control | dose: 12.5 mg/kg/injection, schedule: Q04DX003 (ip), vehicle: distilled water + Tween-80 119 % of control | dose: 50.0 mg/kg/injection, schedule: Q04DX003 (ip), vehicle: distilled water + Tween-80 118 % of control

COC(=O)c1ccc(O)c(O)c1
inactive: [2] 104 % of control | [3] 100 % of control | dose: 400.0 mg/kg/injection, schedule: Q01DX009 (ip), vehicle: saline with Tween-80 100 % of control

O=C1C=C(O)CC2(CCCCC2)C1
inactive: dose: 50.0 mg/kg/injection, schedule: Q01DX005 (ip), vehicle: Klucel (hydroxypropylcellulose) (HPC) 102 % of control | dose: 100.0 mg/kg/injection, schedule: Q01DX005 (ip), vehicle: Klucel (hydroxypropylcellulose) (HPC) 100 % of control and 96 % of control | dose: 200.0 mg/kg/injection, schedule: Q01DX005 (ip), vehicle: Klucel (hydroxypropylcellulose) (HPC) 104 % of control and 105 % of control

CC(C)(C)CC(C)(C)C/C=C/C[N+](C)(C)C/C=C/CC(C)(C)CC(C)(C)C
inactive: dose: 12.5 mg/kg/injection, schedule: Q04DX002 (ip), vehicle: saline 102 % of control | dose: 25.0 mg/kg/injection, schedule: Q04DX002 (ip), vehicle: saline 95 % of control

CC(C)[N+](C)(C)CC(O)COc1ccccc1-c1ccccc1 (stereo not given)
inactive: dose: 12.5 mg/kg/injection, schedule: Q01DX009 (ip), vehicle: saline 100 % of control | dose: 25.0 mg/kg/injection, schedule: Q01DX009 (ip), vehicle: saline 98 % of control | [4] 93 % of control and 97 % of control

O=S(=O)(c1cnccc1N1CCN(CCO)CC1)N1CCCCC1
inactive: [4] 101 % of control | [5] 105 % of control
